Laboratory results: article PMC10185561, “RagD auto-activating mutations impair MiT/TFE activity in kidney tubulopathy and cardiomyopathy syndrome” (Nature Communications, 2023)

Target: T1, GST-RagD (Homo sapiens, UniProt Q9NQL2)
T1 construct: gene RRAGD; GST fusion from pET24d(+) in E. coli Rosetta (DE3), glutathione Sepharose; RagD alone without RagA/B; GST tag kept
Experiment: UV crosslinking of alpha-32P-GTP, SDS-PAGE, autoradiography
Assay type: binding
Details: labelled compound; 1 nM alpha-32P-GTP; 31.25 nM to 2 uM protein; 2 mM MgCl2; 50 mM HEPES pH 7.5; 100 mM potassium acetate; 4 h at 4 C

T1 sequence (Q9NQL2 whole entry, the tested form may be a part): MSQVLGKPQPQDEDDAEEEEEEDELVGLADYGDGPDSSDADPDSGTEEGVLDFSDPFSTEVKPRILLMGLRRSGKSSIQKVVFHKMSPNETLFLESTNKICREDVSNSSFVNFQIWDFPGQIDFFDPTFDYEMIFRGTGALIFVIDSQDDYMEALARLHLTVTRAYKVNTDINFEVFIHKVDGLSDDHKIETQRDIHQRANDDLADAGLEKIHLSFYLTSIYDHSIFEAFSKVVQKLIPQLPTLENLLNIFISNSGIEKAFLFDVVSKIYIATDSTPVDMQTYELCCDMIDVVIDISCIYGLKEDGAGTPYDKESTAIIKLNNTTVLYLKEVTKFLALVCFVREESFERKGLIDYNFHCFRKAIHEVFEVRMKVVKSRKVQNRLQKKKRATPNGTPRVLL

## Nc1nc2c(ncn2[C@@H]2O[C@H](COP(=O)(O)OP(=O)(O)OP(=O)(O)O)[C@@H](O)[C@H]2O)c(=O)[nH]1 [GTP]
  UV crosslinking of alpha-32P-GTP, SDS-PAGE, autoradiography: WT RagD bound GTP in a concentration-dependent manner
